System: primary human T-cells
Assay: IL2 secretion measurements (24 h, CD3-stimulated T-cells, PBS counter screen)
Type: cell-based
Settings: for Emax IL2 (% activation): CD3 condition, normalised to DMSO (neutral) and 20 μM reference compound A1 = 100%; for EC50: Homo sapiens, T-cell, CD3-stimulated primary human T-cells, IL2 secretion, fitted sigmoidal curve, read-out: Tcell IL2 CD3 EC50
Procedure, shortened: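 Expanded primary human T-cells (100k/well) were plated on anti-CD3-coated or PBS-only plates with compound in a 5–6 point dose response (top 20 or 10 μM final, 3.333-fold, 0.2% DMSO). IL-2 in 24 h supernatants was quantified by ProQuantum immunoassay or ELISA. Values were normalized to DMSO and 20 μM reference compound A1 (100%), giving EC50 and Emax.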

In the case of N#CC1(c2nnc(-c3ccc4c(c3)N(Cc3ccc(-c5ccc(C(F)(F)F)cn5)cc3)C(=O)[C@@H](N)CS4(=O)=O)o2)CC1 [Example 62, 1-[5-[(3R)-3-amino-1,1,4-trioxo-5-[[4-[5-(trifluoromethyl)-2-pyridyl]phenyl]methyl]-2,3-dihydro-1λ^6,5-benzothiazepin-7-yl]-1,3,4-oxadiazol-2-yl]cyclopropane-carbonitrile], the “Emax IL2 (% activation)” value is reported as 110 % activation and the EC50 is reported as 2.11 µM.

With CCOC(F)(c1nnc(-c2ccc3c(c2)N(Cc2ccc(-c4noc(C(F)(F)F)n4)cc2)C(=O)[C@@H](N)CS3(=O)=O)o1)C(F)(F)F (stereo partly drawn) [Example 64, (3R)-3-amino-7-[5-(1-ethoxy-1,2,2,2-tetrafluoro-ethyl)-1,3,4-oxadiazol-2-yl]-1,1-dioxo-5-[[4-[5-(trifluoromethyl)-1,2,4-oxadiazol-3-yl]phenyl]methyl]-2,3-dihydro-1λ^6,5-benzothiazepin-4-one] the “Emax IL2 (% activation)” value was 543 % activation and the EC50 was 0.889 µM.

In the case of N[C@H]1CS(=O)(=O)c2ccc(-c3nnc(N4CCC(F)(F)CC4)o3)cc2N(Cc2ccc(-c3noc(C(F)(F)F)n3)cc2)C1=O [Example 68, (3R)-3-amino-7-[5-(4,4-difluoro-1-piperidyl)-1,3,4-oxadiazol-2-yl]-1,1-dioxo-5-[[4-[5-(trifluoromethyl)-1,2,4-oxadiazol-3-yl]phenyl]methyl]-2,3-dihydro-1λ^6,5-benzothiazepin-4-one], the “Emax IL2 (% activation)” value is reported as 351 % activation and the EC50 is reported as 1.16 µM.

In the case of N[C@H]1CS(=O)(=O)c2ccc(-c3nnc(N4CCOC(F)(F)C4)o3)cc2N(Cc2ccc(-c3nnc(C(F)(F)F)o3)cc2)C1=O [Example 80], the “Emax IL2 (% activation)” value is reported as 360 % activation and the EC50 is reported as 3.54 µM.

With CC(C)(C)c1nnc(-c2ccc3c(c2)N(Cc2ccc(-n4nnc(C(F)(F)F)n4)cc2)C(=O)[C@@H](N)CS3(=O)=O)o1 [Example 90, (3R)-3-amino-7-(5-tert-butyl-1,3,4-oxadiazol-2-yl)-1,1-dioxo-5-[[4-[5-(trifluoromethyl)tetrazol-2-yl]phenyl]methyl]-2,3-dihydro-1λ^6,5-benzothiazepin-4-one] the “Emax IL2 (% activation)” value was 159 % activation and the EC50 was 1.01 µM.

For Cn1nc(C(F)(F)F)cc1-c1ccc(CN2C(=O)[C@@H](N)CS(=O)(=O)c3ccc(-c4nnc(C(C)(C)C)o4)cc32)cc1 [Example 92], the “Emax IL2 (% activation)” value was 157 % activation and the EC50 was 2 µM.

CC(C)(C)c1nnc(-c2ccc3c(c2)N(Cc2ccc(-c4ncc(C(F)(F)F)o4)cc2)C(=O)[C@@H](N)CS3(=O)=O)o1 [Example 93, (3R)-3-amino-7-(5-tert-butyl-1,3,4-oxadiazol-2-yl)-1,1-dioxo-5-[[4-[5-(trifluoromethyl)oxazol-2-yl]phenyl]methyl]-2,3-dihydro-1λ^6,5-benzothiazepin-4-one] was tested, and the “Emax IL2 (% activation)” value was 279 % activation and the EC50 was 0.202 µM.

In the case of NC(c1nnc(-c2ccc3c(c2)N(Cc2ccc(-c4noc(C(F)(F)F)n4)cc2)C(=O)[C@@H](N)CS3(=O)=O)o1)C(F)(F)F (some centres unmarked) [Example 94], the “Emax IL2 (% activation)” value is reported as 76 % activation and the EC50 is reported as 2.66 µM.

CCC(O)(c1nnc(-c2ccc3c(c2)N(Cc2ccc(-c4noc(C(F)(F)F)n4)cc2)C(=O)[C@@H](N)CS3(=O)=O)o1)C(F)(F)F (some centres unmarked) [Example 95] was tested, and the “Emax IL2 (% activation)” value was 172 % activation and the EC50 was 0.807 µM.

CC(C)(C#N)c1nnc(-c2ccc3c(c2)N(Cc2ccc(-c4cnc(C(F)(F)F)nc4)cc2)C(=O)[C@@H](N)CS3(=O)=O)o1 [Example 100] was tested, and the “Emax IL2 (% activation)” value was 100 % activation and the EC50 was 3.22 µM.

In the case of CC(C)(C#N)c1nnc(-c2ccc3c(c2)N(Cc2ccc(-c4noc(C5CCC(F)(F)CC5)n4)cc2)C(=O)[C@@H](N)CS3(=O)=O)o1 [Example 101, 2-[5-[(3R)-3-amino-5-[[4-[5-(4,4-difluorocyclohexyl)-1,2,4-oxadiazol-3-yl]phenyl]methyl]-1,1,4-trioxo-2,3-dihydro-1λ^6,5-benzothiazepin-7-yl]-1,3,4-oxadiazol-2-yl]-2-methyl-propanenitrile], the “Emax IL2 (% activation)” value is reported as 429 % activation and the EC50 is reported as 3.65 µM.

In the case of CC(C)(C#N)c1nnc(-c2ccc3c(c2)N(Cc2ccc(-n4cc(C(F)(F)F)cn4)cc2)C(=O)[C@@H](N)CS3(=O)=O)o1 [Example 102, 2-[5-[(3R)-3-amino-1,1,4-trioxo-5-[[4-[4-(trifluoromethyl)pyrazol-1-yl]phenyl]methyl]-2,3-dihydro-1λ^6,5-benzothiazepin-7-yl]-1,3,4-oxadiazol-2-yl]-2-methyl-propanenitrile], the “Emax IL2 (% activation)” value is reported as 143 % activation and the EC50 is reported as 0.635 µM.

With CC(C)(C#N)c1nnc(-c2ccc3c(c2)N(Cc2ccc(-c4ncc(C(F)(F)F)o4)cc2)C(=O)[C@@H](N)CS3(=O)=O)o1 [Example 105, 2-[5-[(3R)-3-amino-1,1,4-trioxo-5-[[4-[5-(trifluoromethyl)oxazol-2-yl]phenyl]methyl]-2,3-dihydro-1λ^6,5-benzothiazepin-7-yl]-1,3,4-oxadiazol-2-yl]-2-methyl-propanenitrile] the “Emax IL2 (% activation)” value was 146 % activation and the EC50 was 0.999 µM.

For CC(C)(C#N)c1nnc(-c2ccc3c(c2)N(Cc2ccc(-c4ccc(C(F)(F)F)cc4)nc2)C(=O)[C@@H](N)CS3(=O)=O)o1 [Example 106], the “Emax IL2 (% activation)” value was 121 % activation and the EC50 was 3.84 µM.

In the case of Cn1nc(C(F)(F)F)cc1-c1ccc(CN2C(=O)[C@@H](N)CS(=O)(=O)c3ccc(-c4nnc(C(C)(C)C#N)o4)cc32)cc1 [Example 107, 2-[5-[(3R)-3-amino-5-[[4-[2-methyl-5-(trifluoromethyl)pyrazol-3-yl]phenyl]methyl]-1,1,4-trioxo-2,3-dihydro-1λ^6,5-benzothiazepin-7-yl]-1,3,4-oxadiazol-2-yl]-2-methyl-propanenitrile], the “Emax IL2 (% activation)” value is reported as 241 % activation and the EC50 is reported as 1.39 µM.

CC(C)(C#N)c1nnc(-c2ccc3c(c2)N(Cc2ccc(-c4ccc(OC(F)F)cn4)cc2)C(=O)[C@@H](N)CS3(=O)=O)o1 [Example 108, 2-[5-[(3R)-3-amino-5-[[4-[5-(difluoromethoxy)-2-pyridyl]phenyl]methyl]-1,1,4-trioxo-2,3-dihydro-1λ^6,5-benzothiazepin-7-yl]-1,3,4-oxadiazol-2-yl]-2-methyl-propanenitrile] was tested, and the “Emax IL2 (% activation)” value was 245 % activation and the EC50 was 1.56 µM.

With CC(F)(F)c1ccc(-c2ccc(CN3C(=O)[C@@H](N)CS(=O)(=O)c4ccc(-c5nnc(C(C)(C)C#N)o5)cc43)cc2)nc1 [Example 109, 2-[5-[(3R)-3-amino-5-[[4-[5-(1,1-difluoroethyl)-2-pyridyl]phenyl]methyl]-1,1,4-trioxo-2,3-dihydro-1λ^6,5-benzothiazepin-7-yl]-1,3,4-oxadiazol-2-yl]-2-methyl-propanenitrile] the “Emax IL2 (% activation)” value was 360 % activation and the EC50 was 3.4 µM.

For CC(C)(C#N)c1nnc(-c2ccc3c(c2)N(Cc2ccc(-c4cc(OC(F)F)ccn4)cc2)C(=O)[C@@H](N)CS3(=O)=O)o1 [Example 110, 2-[5-[(3R)-3-amino-5-[[4-[4-(difluoromethoxy)-2-pyridyl]phenyl]methyl]-1,1,4-trioxo-2,3-dihydro-1λ^6,5-benzothiazepin-7-yl]-1,3,4-oxadiazol-2-yl]-2-methyl-propanenitrile], the “Emax IL2 (% activation)” value was 85 % activation and the EC50 was 4.11 µM.

For CC(C)(C#N)c1nnc(-c2ccc3c(c2)N(Cc2ccc(-c4ccnc(C(F)(F)F)c4)cc2)C(=O)[C@@H](N)CS3(=O)=O)o1 [Example 111, 2-[5-[(3R)-3-amino-1,1,4-trioxo-5-[[4-[2-(trifluoromethyl)-4-pyridyl]phenyl]methyl]-2,3-dihydro-1λ^6,5-benzothiazepin-7-yl]-1,3,4-oxadiazol-2-yl]-2-methyl-propanenitrile], the “Emax IL2 (% activation)” value was 151 % activation and the EC50 was 1.86 µM.

For CC(C)(C#N)c1nnc(-c2ccc3c(c2)N(Cc2ccc(-c4cnc(OC(F)(F)F)cn4)cc2)C(=O)[C@@H](N)CS3(=O)=O)o1 [Example 112], the “Emax IL2 (% activation)” value was 139 % activation and the EC50 was 0.832 µM.

In the case of CC(C)(C#N)c1nnc(-c2ccc3c(c2)N(Cc2ccc(-c4ccc(C(F)(F)F)nc4)cc2)C(=O)[C@@H](N)CS3(=O)=O)o1 [Example 113, 2-[5-[(3R)-3-amino-1,1,4-trioxo-5-[[4-[6-(trifluoromethyl)-3-pyridyl]phenyl]methyl]-2,3-dihydro-1λ^6,5-benzothiazepin-7-yl]-1,3,4-oxadiazol-2-yl]-2-methyl-propanenitrile], the “Emax IL2 (% activation)” value is reported as 85 % activation and the EC50 is reported as 1.32 µM.

In the case of Cc1nc(-c2ccc(CN3C(=O)[C@@H](N)CS(=O)(=O)c4ccc(-c5nnc(C(C)(C)C#N)o5)cc43)cc2)ccc1C(F)(F)F [Example 114], the “Emax IL2 (% activation)” value is reported as 48 % activation and the EC50 is reported as 1.05 µM.

For CC(C)(C#N)c1nnc(-c2ccc3c(c2)N(Cc2ccc(-c4cnn(C(F)(F)F)c4)cc2)C(=O)[C@@H](N)CS3(=O)=O)o1 [Example 115, 2-[5-[(3R)-3-amino-1,1,4-trioxo-5-[[4-[1-(trifluoromethyl)pyrazol-4-yl]phenyl]methyl]-2,3-dihydro-1λ^6,5-benzothiazepin-7-yl]-1,3,4-oxadiazol-2-yl]-2-methyl-propanenitrile], the “Emax IL2 (% activation)” value was 112 % activation and the EC50 was 0.507 µM.

For CC(C)(C#N)c1nnc(-c2ccc3c(c2)N(Cc2ccc(-c4cc(C(F)(F)F)ccn4)cc2)C(=O)[C@@H](N)CS3(=O)=O)o1 [Example 116, 2-[5-[(3R)-3-amino-1,1,4-trioxo-5-[[4-[4-(trifluoromethyl)-2-pyridyl]phenyl]methyl]-2,3-dihydro-1λ^6,5-benzothiazepin-7-yl]-1,3,4-oxadiazol-2-yl]-2-methyl-propanenitrile], the “Emax IL2 (% activation)” value was 87 % activation and the EC50 was 1.03 µM.

CC(C)(C#N)c1nnc(-c2ccc3c(c2)N(Cc2ccc(-c4ncc(OC(F)(F)F)cn4)cc2)C(=O)[C@@H](N)CS3(=O)=O)o1 [Example 117] was tested, and the “Emax IL2 (% activation)” value was 114 % activation and the EC50 was 0.587 µM.

Reference: patent US20260138976A1 (Hoffmann-La Roche Inc., priority 2022, published 2026)
